The values below come from patent US20260125375A1 (Pfizer Inc., priority 2022, published 2026).

One assay deals with T1, CBL-B (residues 36-427) (Homo sapiens, UniProt Q13191).
T1 construct: Purified CBL-B (residues 36-427) and C-CBL (residues 46-435) proteins from baculovirus-infected insect cells; made in house; host or cells: baculovirus-infected insect cells
As to the kind of experiment: Ligand Displacement Assay (LDA), HTRF competitive binding against BODIPY-labeled fluorescent tracer, CBL-B. The note with it: geometric mean of the number of tests, read-out: CBL-B Ki (nM) GMean. Summed up:
(§1)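 First, the insect-cell-expressed protein is biotinylated at its amino-terminal AviTag with BirA and coupled to SA-Tb. Next, the tracer KD is determined for each protein. Finally, compounds are titrated three-fold in duplicate […], at 2% DMSO, and Ki is reported as a geometric mean.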

Another assay has as its target T2, C-CBL (residues 46-435) (Homo sapiens, UniProt P22681).
T2 construct: Purified CBL-B (residues 36-427) and C-CBL (residues 46-435) proteins from baculovirus-infected insect cells; made in house; host or cells: baculovirus-infected insect cells
T2 sequence (P22681 46-435): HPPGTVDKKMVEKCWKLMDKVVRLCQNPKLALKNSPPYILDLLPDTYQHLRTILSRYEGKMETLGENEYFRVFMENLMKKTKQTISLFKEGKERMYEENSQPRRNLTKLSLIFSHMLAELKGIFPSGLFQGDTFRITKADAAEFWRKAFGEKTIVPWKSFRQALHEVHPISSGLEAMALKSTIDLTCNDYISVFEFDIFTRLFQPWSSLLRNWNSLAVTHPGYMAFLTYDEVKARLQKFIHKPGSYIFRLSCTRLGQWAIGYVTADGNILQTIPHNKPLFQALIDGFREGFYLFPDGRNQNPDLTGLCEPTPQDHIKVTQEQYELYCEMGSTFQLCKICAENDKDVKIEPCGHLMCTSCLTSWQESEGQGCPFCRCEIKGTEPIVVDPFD
As to the kind of experiment: Ligand Displacement Assay (LDA), HTRF competitive binding against BODIPY-labeled fluorescent tracer, C-CBL. Conditions: geometric mean of the number of tests, read-out: C-CBL Ki (nM) GMean. In a few lines:
as §1
For orientation: TR-FRET usually uses a lanthanide donor and a delayed reading to cut background.

Another assay addresses T3, WT CBL-B (36-427) (Homo sapiens, UniProt Q13191).
T3 construct: N-terminal biotinylated WT CBL-B (36-427) and C-CBL (46-435) were captured on a streptavidin (SA) coated sensor chip
Briefly: Surface Plasmon Resonance (SPR) assay, binding affinity and kinetics, CBL-B. Conditions: SPR at 10° C., biotinylated WT CBL-B (36-427) on streptavidin chip; geometric mean; read-out: CBL-B SPR Kd (nM) GMean. In a few lines: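 Biotinylated WT CBL-B (36-427) or C-CBL (46-435) captured on streptavidin chip (~5000–6000 RU); binding at 10° C in HEPES buffer pH 7.2 with 2% DMSO. Multi-cycle: 2-fold, 10-point series from 10 or 100 μM, 90 s association. Single-cycle: 3-fold, 6-point, 0.001–1 μM, 120 s association, >5400 s dissociation.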

By Ki is commonly meant the equilibrium dissociation constant of an inhibitor or competing ligand from its target. What is called Kd is a measure of binding affinity in units of concentration. Regarding `Cn1cnnc1[C@@H](c1cccc(-c2n[nH]c3cnc(C(F)(F)F)cc23)c1)C1CCC1` [Example A1, 3-{3-[(R)-cyclobutyl(4-methyl-4H-1,2,4-triazol-3-yl)methyl]phenyl}-5-(trifluoromethyl)-1H-pyrazolo[3,4-c]pyridine], the inhibition constant (Ki) was 74.4 nM at CBL-B (residues 36-427) and 681 nM at C-CBL (residues 46-435). At WT CBL-B (36-427), the Kd came out at 34.6 nM.
Taken in the same sequence, the figures for `Cn1cnnc1CC1(c2cccc(-c3n[nH]c4cnc(C(F)(F)F)cc34)c2)COC1` [Example B1, 3-(3-(3-((4-methyl-4H-1,2,4-triazol-3-yl)methyl)oxetan-3-yl)phenyl)-5-(trifluoromethyl)-1H-pyrazolo[3,4-c]pyridine] were 62.7 nM, 283 nM and 49.5 nM.
The like results for `Cn1cnnc1CC1(c2cccc(-c3n[nH]c4ncc(C(F)(F)F)cc34)c2)COC1` [Example B3, 3-(3-{3-[(4-methyl-4H-1,2,4-triazol-3-yl)methyl]oxetan-3-yl}phenyl)-5-(trifluoromethyl)-1H-pyrazolo[3,4-b]pyridine] were, in that order, 75.3 nM, 363 nM and 67.9 nM.
With `Cn1cnnc1[C@@H](c1cccc(-c2n[nH]c3c(CN[C@@H]4CCC[C@@H]4O)nc(C(F)(F)F)cc23)c1)C1CCC1` [Example C1, (1S,2R)-2-({[3-{3-[(R)-cyclobutyl(4-methyl-4H-1,2,4-triazol-3-yl)methyl]phenyl}-5-(trifluoromethyl)-1H-pyrazolo[3,4-c]pyridin-7-yl]methyl}amino)cyclopentan-1-ol], the Ki at CBL-B (residues 36-427) was found to be 0.6 nM; at C-CBL (residues 46-435), 7.1 nM. Further, the Kd at WT CBL-B (36-427) was 1.2 nM.
Taken in the same sequence, the figures for `Cn1cnnc1[C@@H](c1cccc(-c2n[nH]c3c(CN[C@H]4CCC[C@@H]4O)nc(C(F)(F)F)cc23)c1)C1CCC1` [Example C4, (1S,2S)-2-({[3-{3-[(R)-cyclobutyl(4-methyl-4H-1,2,4-triazol-3-yl)methyl]phenyl}-5-(trifluoromethyl)-1H-pyrazolo[3,4-c]pyridin-7-yl]methyl}amino)cyclopentan-1-ol] were 3.3 nM, 47.4 nM and 2.1 nM.
Taken in the same sequence, the figures for `C[C@H]1CN(Cc2nc(C(F)(F)F)cc3c(-c4cccc([C@H](c5nncn5C)C5CCC5)c4)n[nH]c23)CCO1` [Example C6, 3-{3-[(R)-cyclobutyl(4-methyl-4H-1,2,4-triazol-3-yl)methyl]phenyl}-7-{[(2S)-2-methylmorpholin-4-yl]methyl}-5-(trifluoromethyl)-1H-pyrazolo[3,4-c]pyridine] were 25.8 nM, 256 nM and 4.4 nM.
The like results for `C[C@H]1CCCN(Cc2nc(C(F)(F)F)cc3c(-c4cccc([C@H](c5nncn5C)C5CCC5)c4)n[nH]c23)C1` [Example C7, 3-{3-[(R)-cyclobutyl(4-methyl-4H-1,2,4-triazol-3-yl)methyl]phenyl}-7-{[(3S)-3-methylpiperidin-1-yl]methyl}-5-(trifluoromethyl)-1H-pyrazolo[3,4-c]pyridine] were, in that order, 3.7 nM, 53.1 nM and 2.7 nM.
Regarding `C[C@H](N[C@H]1CCC(F)(F)C1)c1nc(C(F)(F)F)cc2c(-c3cccc([C@H](c4nncn4C)C4CCC4)c3)n[nH]c12` [Example C8], the Ki at CBL-B (residues 36-427) is 1.1 nM; on C-CBL (residues 46-435), 3 nM. In addition, at WT CBL-B (36-427), the dissociation constant Kd stood at 2.2 nM.
Regarding `C[C@@H](N[C@H]1CCC(F)(F)C1)c1nc(C(F)(F)F)cc2c(-c3cccc([C@H](c4nncn4C)C4CCC4)c3)n[nH]c12` [Example C9], the Ki turned out to be 5 nM on CBL-B (residues 36-427) and 85.2 nM at C-CBL (residues 46-435). Moreover, the dissociation constant Kd at WT CBL-B (36-427) was 3.1 nM.
Taken in the same sequence, the figures for `CC(NC1CCCC1)c1nc(C(F)(F)F)cc2c(-c3cccc([C@H](c4nncn4C)C4CCC4)c3)n[nH]c12` (stereo partly drawn) [Example C14, N-{(1ξ)-1-[3-{3-[(R)-cyclobutyl(4-methyl-4H-1,2,4-triazol-3-yl)methyl]phenyl}-5-(trifluoromethyl)-1H-pyrazolo[3,4-c]cyclopen-7-yl]ethyl}cyclopentanamine] were 0.4 nM, 2.3 nM and 1.4 nM.
The like results for `C[C@@H](NC1CCC1)c1nc(C(F)(F)F)cc2c(-c3cccc(C4(Cc5nncn5C)COC4)c3)n[nH]c12` [Example C16] were, in that order, 10 nM, 49.3 nM and 2 nM.
The like results for `C[C@@H]1CCCN(Cc2nc(C(F)(F)F)cc3c(-c4cccc(C5(Cc6nncn6C)COC5)c4)n[nH]c23)C1` [Example C29, 7-{[(3R)-3-methylpiperidin-1-yl]methyl}-3-(3-{3-[(4-methyl-4H-1,2,4-triazol-3-yl)methyl]oxetan-3-yl}phenyl)-5-(trifluoromethyl)-1H-pyrazolo[3,4-c]pyridine] were, in that order, 8.5 nM, 46.3 nM and 3.8 nM.
For the compound `C[C@H]1CCCN(Cc2nc(C(F)(F)F)cc3c(-c4cccc(C5(Cc6nncn6C)COC5)c4)n[nH]c23)C1` [Example C30, 7-{[(3S)-3-methylpiperidin-1-yl]methyl}-3-(3-{3-[(4-methyl-4H-1,2,4-triazol-3-yl)methyl]oxetan-3-yl}phenyl)-5-(trifluoromethyl)-1H-pyrazolo[3,4-c]pyridine], the Ki on CBL-B (residues 36-427) is 3.6 nM; at C-CBL (residues 46-435) it was 23.4 nM. The Kd at WT CBL-B (36-427) amounted to 3 nM.
Take `Cn1cnnc1CC1(c2cccc(-c3n[nH]c4c(CN5CCCCC5)nc(C(F)(F)F)cc34)c2)COC1` [Example C33, 3-(3-{3-[(4-methyl-4H-1,2,4-triazol-3-yl)methyl]oxetan-3-yl}phenyl)-7-[(piperidin-1-yl)methyl]-5-(trifluoromethyl)-1H-pyrazolo[3,4-c]pyridine]: the results for the Ki at CBL-B (residues 36-427) and at C-CBL (residues 46-435) were 22.6 nM and 111 nM, respectively. Also, the Kd on WT CBL-B (36-427) is 6.8 nM.
Taken in the same sequence, the figures for `Cn1cnnc1CC1(c2cccc(-c3n[nH]c4c(CN[C@H]5CCC(F)(F)C5)nc(C(F)(F)F)cc34)c2)COC1` [Example C38, (1S)-3,3-difluoro-N-{[3-(3-{3-[(4-methyl-4H-1,2,4-triazol-3-yl)methyl]oxetan-3-yl}phenyl)-5-(trifluoromethyl)-1H-pyrazolo[3,4-c]pyridin-7-yl]methyl}cyclopentan-1-amine] were 6.9 nM, 32.9 nM and 7.5 nM.
For `Cn1cnnc1[C@@H](c1cccc(-c2n[nH]c3c(CN[C@H]4CCOC4)nc(C(F)(F)F)cc23)c1)C1CCC1` [Example D1, (3S)—N-{[3-{3-[(R)-cyclobutyl(4-methyl-4H-1,2,4-triazol-3-yl)methyl]phenyl}-5-(trifluoromethyl)-1H-pyrazolo[3,4-c]pyridin-7-yl]methyl}oxolan-3-amine], the values for the Ki on CBL-B (residues 36-427) and at C-CBL (residues 46-435) were 22.4 nM and 210 nM, respectively. For the same compound, the Kd on WT CBL-B (36-427) came out at 3.7 nM.
The like results for `Cn1cnnc1[C@@H](c1cccc(-c2n[nH]c3c(CNC4CCCC4)nc(C(F)(F)F)cc23)c1)C1CCC1` [Example D4] were, in that order, 5.1 nM, 54.8 nM and 2.8 nM.
The like results for `C[C@H](NC1CCC1)c1nc(C(F)(F)F)cc2c(-c3cccc(C4(Cc5nncn5C)COC4)c3)n[nH]c12` [Example F1, N-{(1S)-1-[3-(3-{3-[(4-methyl-4H-1,2,4-triazol-3-yl)methyl]oxetan-3-yl}phenyl)-5-(trifluoromethyl)-1H-pyrazolo[3,4-c]pyridin-7-yl]ethyl}cyclobutanamine] were, in that order, 1.3 nM, 7.3 nM and 0.7 nM.
The like results for `C[C@H](N)c1nc(C(F)(F)F)cc2c(-c3cccc([C@H](c4nncn4C)C4CCC4)c3)n[nH]c12` [Example K12, (1S)-1-[3-{3-[(R)-cyclobutyl(4-methyl-4H-1,2,4-triazol-3-yl)methyl]phenyl}-5-(trifluoromethyl)-1H-pyrazolo[3,4-c]pyridin-7-yl]ethan-1-amine] were, in that order, 19.3 nM, 136 nM and 4.2 nM.
